Measurements published in US20260146035A1, “FUSED BICYCLIC COMPOUNDS AND THEIR USE AS MER AND AXL INHIBITORS” (DONG-A ST CO., LTD., priority 2022, published 2026).

Columns and labels:
human MER (528-end) = target: T1, human MER (528-end) (Homo sapiens, UniProt Q12866); assay: HTRF kinase activity biochemical assay, MER; conditions: 10 μM ATP, 30 minutes pre-incubation; read-out: HTRF MERTK IC50
T1 construct: human MER (528-end); purchased Camnabio, Japan
T1 sequence (Q12866 528-999 limits assumed): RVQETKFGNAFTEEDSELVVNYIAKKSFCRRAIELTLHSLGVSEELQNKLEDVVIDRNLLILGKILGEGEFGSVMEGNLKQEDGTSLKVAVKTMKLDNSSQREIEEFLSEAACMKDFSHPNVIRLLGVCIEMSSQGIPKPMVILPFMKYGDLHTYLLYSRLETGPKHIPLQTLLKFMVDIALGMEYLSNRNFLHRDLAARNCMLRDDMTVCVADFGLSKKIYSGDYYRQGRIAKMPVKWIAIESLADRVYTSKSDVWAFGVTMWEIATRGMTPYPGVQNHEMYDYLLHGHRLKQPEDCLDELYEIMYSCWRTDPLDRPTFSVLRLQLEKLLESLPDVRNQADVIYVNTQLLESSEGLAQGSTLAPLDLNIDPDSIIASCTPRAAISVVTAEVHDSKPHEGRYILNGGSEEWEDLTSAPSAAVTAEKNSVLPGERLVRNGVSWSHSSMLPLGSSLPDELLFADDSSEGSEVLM

human TYRO3 (455-end) = target: T2, human TYRO3 (455-end) (Homo sapiens, UniProt Q06418); assay: HTRF kinase activity biochemical assay, TYRO3; conditions: 10 μM ATP, 30 minutes pre-incubation; read-out: HTRF TYRO IC50
T2 construct: TYRO3 (455-end); purchased SignalChem, Canada
T2 sequence (Q06418 455-890 limits assumed): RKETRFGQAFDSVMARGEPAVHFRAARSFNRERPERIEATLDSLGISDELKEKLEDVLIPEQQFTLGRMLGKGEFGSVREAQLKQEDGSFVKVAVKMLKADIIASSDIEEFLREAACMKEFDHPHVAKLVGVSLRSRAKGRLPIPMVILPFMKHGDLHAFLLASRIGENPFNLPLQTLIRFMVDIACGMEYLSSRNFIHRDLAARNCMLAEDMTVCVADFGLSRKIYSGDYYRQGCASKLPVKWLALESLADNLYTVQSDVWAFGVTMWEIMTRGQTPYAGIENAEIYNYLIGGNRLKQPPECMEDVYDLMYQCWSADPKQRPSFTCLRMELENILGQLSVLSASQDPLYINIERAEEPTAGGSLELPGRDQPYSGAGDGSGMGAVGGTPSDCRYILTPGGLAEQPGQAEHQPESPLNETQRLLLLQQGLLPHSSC

human AXL (473-end) = target: T3, human AXL (473-end) (Homo sapiens, UniProt P30530); assay: HTRF kinase activity biochemical assay, AXL; conditions: 10 μM ATP, 30 minutes pre-incubation
T3 construct: human AXL (473-end); purchased SignalChem, Canada
T3 sequence (P30530 473-894 limits assumed): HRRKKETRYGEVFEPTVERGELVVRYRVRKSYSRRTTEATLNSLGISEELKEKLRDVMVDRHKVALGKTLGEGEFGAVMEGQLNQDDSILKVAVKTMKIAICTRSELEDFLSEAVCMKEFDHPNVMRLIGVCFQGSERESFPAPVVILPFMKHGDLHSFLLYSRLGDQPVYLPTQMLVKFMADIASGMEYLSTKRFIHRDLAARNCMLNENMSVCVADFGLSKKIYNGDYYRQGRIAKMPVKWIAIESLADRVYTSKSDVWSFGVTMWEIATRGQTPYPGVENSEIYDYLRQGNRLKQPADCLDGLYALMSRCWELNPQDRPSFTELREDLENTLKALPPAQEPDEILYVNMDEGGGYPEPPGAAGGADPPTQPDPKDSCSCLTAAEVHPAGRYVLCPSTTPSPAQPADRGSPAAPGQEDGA

IC50 (human MER (528-end)) [µM]	IC50 (human TYRO3 (455-end)) [µM]	IC50 (human AXL (473-end)) [µM]	SMILES
< 0.01	0.1 to 1	< 0.01	CN1CCN([C@H]2CCc3cc(-c4ccc(CO[C@H]5CCC[C@@H]5NC(=O)c5cc(C(F)(F)F)cnc5N)cc4)ccc32)CC1 [Example 143, 2-amino-N-[(1S,2S)-2-({4-[(1S)-1-(4-methylpiperazin-1-yl)-2,3-dihydro-1H-inden-5-yl]phenyl}methoxy)cyclopentyl]-5-(trifluoromethyl)pyridine-3-carboxamide]
< 0.01	0.1 to 1	< 0.01	COc1c(-c2cnn(C)c2)cnc(N)c1C(=O)N[C@H]1CCC[C@@H]1OCc1ccc(-c2ccc3c(c2)CC[C@@H]3N2CCN(CCO)CC2)cc1 [Example 155, 2-amino-N-{(1S,2S)-2-[(4-{(1S)-1-[4-(2-hydroxyethyl)piperazin-1-yl]-2,3-dihydro-1H-inden-5-yl}phenyl)methoxy]cyclopentyl}-4-methoxy-5-(1-methyl-1H-pyrazol-4-yl)pyridine-3-carboxamide]
< 0.01	0.1 to 1	< 0.01	COc1ccc(-c2cnc(N)c(C(=O)N[C@H]3CCC[C@@H]3OCc3ccc(-c4ccc5c(c4)CC[C@@H]5N4CCN(C)CC4)cc3)c2)cn1 [Example 152, 6-amino-6′-methoxy-N-[(1S,2S)-2-({4-[(1S)-1-(4-methylpiperazin-1-yl)-2,3-dihydro-1H-inden-5-yl]phenyl}methoxy)cyclopentyl][3,3′-bipyridine]-5-carboxamide]
< 0.01	0.1 to 1	< 0.01	CN1CCN([C@H]2CCc3cc(-c4ccc(CO[C@H]5CCC[C@@H]5NC(=O)c5cc(-c6ccc(C#N)nc6)cnc5N)cc4)ccc32)CC1 [Example 154, 6-amino-6′-cyano-N-[(1S,2S)-2-({4-[(1S)-1-(4-methylpiperazin-1-yl)-2,3-dihydro-1H-inden-5-yl]phenyl}methoxy)cyclopentyl][3,3′-bipyridine]-5-carboxamide]
< 0.01	0.01 to 0.1	< 0.01	COc1nc(-c2cnc(N)c(C(=O)N[C@H]3CCC[C@@H]3OCc3ccc(-c4ccc5c(c4)CC[C@@H]5N4CCN(CCO)CC4)cc3)c2)cs1 [Example 179, 2-amino-N-{(1S,2S)-2-[(4-{(1S)-1-[4-(2-hydroxyethyl)piperazin-1-yl]-2,3-dihydro-1H-inden-5-yl}phenyl)methoxy]cyclopentyl}-5-(2-methoxy-1,3-thiazol-4-yl)pyridine-3-carboxamide]
< 0.01	0.01 to 0.1	< 0.01	Cc1nc(-c2cnc(N)c(C(=O)N[C@H]3CCC[C@@H]3OCc3ccc(-c4ccc5c(c4)CC[C@@H]5N4CCN(CCO)CC4)cc3)c2)cs1 [Example 180, 2-amino-N-{(1S,2S)-2-[(4-{(1S)-1-[4-(2-hydroxyethyl)piperazin-1-yl]-2,3-dihydro-1H-inden-5-yl}phenyl)methoxy]cyclopentyl}-5-(2-methyl-1,3-thiazol-4-yl)pyridine-3-carboxamide]

More lines, now with the values behind:

SMILES	IC50 (human MER (528-end)) [µM]	IC50 (human TYRO3 (455-end)) [µM]	IC50 (human AXL (473-end)) [µM]
CC1(C)C[C@@H](N2CCN(CCO)CC2)c2ccc(-c3ccc(CO[C@H]4CCC[C@@H]4NC(=O)c4cc(-c5cccnc5F)cnc4N)cc3)cc21 [Example 135, 6-amino-2′-fluoro-N-{(1S,2S)-2-[(4-{(1R)-1-[4-(2-hydroxyethyl)piperazin-1-yl]-3,3-dimethyl-2,3-dihydro-1H-inden-5-yl}phenyl)methoxy]cyclopentyl}[3,3′-bipyridine]-5-carboxamide]	< 0.01	0.1 to 1	< 0.01
COc1ccnc(N)c1C(=O)N[C@H]1CCC[C@@H]1OCc1ccc(-c2ccc3c(c2)CC[C@@H]3N2CCN(CCO)CC2)cc1 [Example 137, 2-amino-N-{(1S,2S)-2-[(4-{(1S)-1-[4-(2-hydroxyethyl)piperazin-1-yl]-2,3-dihydro-1H-inden-5-yl}phenyl)methoxy]cyclopentyl}-4-methoxypyridine-3-carboxamide]	< 0.01	0.1 to 1	< 0.01
Cn1cc(-c2cnc(N)c(C(=O)N[C@H]3COC[C@@H]3OCc3ccc(-c4ccc5c(c4)C(C)(C)CN5C4CCN(CCO)CC4)cc3)c2)cn1 [Example 32, 2-amino-N-{(3S,4R)-4-[(4-{1-[1-(2-hydroxyethyl)piperidin-4-yl]-3,3-dimethyl-2,3-dihydro-1H-indol-5-yl}phenyl)methoxy]oxolan-3-yl}-5-(1-methyl-1H-pyrazol-4-yl)pyridine-3-carboxamide]	< 0.01	0.01 to 0.1	< 0.01
Cn1cc(-c2cnc(N)c(C(=O)N[C@H]3CCC[C@@H]3OCc3ccc(-c4ccc5c(n4)C(C)(C)CN5C4CCN(CCO)CC4)cc3)c2)cn1 [Example 113, 2-amino-N-{(1S,2S)-2-[(4-{1-[1-(2-hydroxyethyl)piperidin-4-yl]-3,3-dimethyl-2,3-dihydro-1H-pyrrolo[3,2-b]pyridin-5-yl}phenyl)methoxy]cyclopentyl}-5-(1-methyl-1H-pyrazol-4-yl)pyridine-3-carboxamide]	< 0.01	0.1 to 1	0.01 to 0.1
CC1(C)CC(N2CCN(CCO)CC2)c2ccc(-c3ccc(CO[C@H]4CCC[C@@H]4NC(=O)c4cc(C(F)(F)F)cnc4N)cc3)cc21 (stereo partly drawn) [Example 130, 2-amino-N-{(1S,2S)-2-[(4-{1-[4-(2-hydroxyethyl)piperazin-1-yl]-3,3-dimethyl-2,3-dihydro-1H-inden-5-yl}phenyl)methoxy]cyclopentyl}-5-(trifluoromethyl)pyridine-3-carboxamide]	< 0.01	0.1 to 1	< 0.01
CN1CCN([C@H]2CCc3cc(-c4ccc(CO[C@H]5CCC[C@@H]5NC(=O)c5cc(-c6cccnc6F)cnc5N)cc4)ccc32)CC1 [Example 116, 6-amino-2′-fluoro-N-[(1S,2S)-2-({4-[(1S)-1-(4-methylpiperazin-1-yl)-2,3-dihydro-1H-inden-5-yl]phenyl}methoxy)cyclopentyl][3,3′-bipyridine]-5-carboxamide]	< 0.01	0.1 to 1	< 0.01
Cn1cc(-c2cnc(N)c(C(=O)N[C@H]3CCC[C@@H]3OCc3ccc(-c4ccc5c(c4)CC(F)(F)C5N4CCN(CCO)CC4)cc3)c2)cn1 (stereo partly drawn) [Example 50, 2-amino-N-{(1S,2S)-2-[(4-{2,2-difluoro-1-[4-(2-hydroxyethyl)piperazin-1-yl]-2,3-dihydro-1H-inden-5-yl}phenyl)methoxy]cyclopentyl}-5-(1-methyl-1H-pyrazol-4-yl)pyridine-3-carboxamide]	< 0.01	0.1 to 1	< 0.01
CC1(C)CN(C2CCN(CCO)CC2)c2ccc(-c3ccc(CO[C@H]4COC[C@@H]4NC(=O)c4nc(-c5ccc(F)nc5)cnc4N)cc3)cc21 [Example 52, 3-amino-6-(6-fluoropyridin-3-yl)-N-{(3S,4R)-4-[(4-{1-[1-(2-hydroxyethyl)piperidin-4-yl]-3,3-dimethyl-2,3-dihydro-1H-indol-5-yl}phenyl)methoxy]oxolan-3-yl}pyrazine-2-carboxamide]	< 0.01	0.1 to 1	0.01 to 0.1
Nc1ncc(-c2ccc(F)nc2)cc1C(=O)N[C@H]1CCC[C@@H]1OCc1ccc(-c2ccc3c(c2)C2(CC2)CN(C2CCN(CCO)CC2)C3)cc1 [Example 75, 6-amino-6′-fluoro-N-{(1S,2S)-2-[(4-{2′-[1-(2-hydroxyethyl)piperidin-4-yl]-2′,3′-dihydro-1′H-spiro[cyclopropane-1,4′-isoquinolin]-6′-yl}phenyl)methoxy]cyclopentyl}[3,3′-bipyridine]-5-carboxamide]	> 1	> 1	> 1
CN1CC(C)(C)c2cc(-c3ccc(CO[C@H]4CCC[C@@H]4NC(=O)c4cc(-c5cnn(C)c5)cnc4N)cc3)ccc21 [Example 17, 2-amino-5-(1-methyl-1H-pyrazol-4-yl)-N-[(1S,2S)-2-{[4-(1,3,3-trimethyl-2,3-dihydro-1H-indol-5-yl)phenyl]methoxy}cyclopentyl]pyridine-3-carboxamide]	0.01 to 0.1	> 1	0.01 to 0.1
